This note sets out measurements from patent US20250325677A1, “STAT6 DEGRADERS” (Gilead Sciences, Inc., priority 2024, published 2025).

For orientation: DC50 means the midpoint of the concentration-degradation curve. As usually defined, the Emax is the size of the effect at its maximum, as opposed to the concentration needed.

Bounds are passed on as bounds.

Chain of STAT6 (P42226 whole entry): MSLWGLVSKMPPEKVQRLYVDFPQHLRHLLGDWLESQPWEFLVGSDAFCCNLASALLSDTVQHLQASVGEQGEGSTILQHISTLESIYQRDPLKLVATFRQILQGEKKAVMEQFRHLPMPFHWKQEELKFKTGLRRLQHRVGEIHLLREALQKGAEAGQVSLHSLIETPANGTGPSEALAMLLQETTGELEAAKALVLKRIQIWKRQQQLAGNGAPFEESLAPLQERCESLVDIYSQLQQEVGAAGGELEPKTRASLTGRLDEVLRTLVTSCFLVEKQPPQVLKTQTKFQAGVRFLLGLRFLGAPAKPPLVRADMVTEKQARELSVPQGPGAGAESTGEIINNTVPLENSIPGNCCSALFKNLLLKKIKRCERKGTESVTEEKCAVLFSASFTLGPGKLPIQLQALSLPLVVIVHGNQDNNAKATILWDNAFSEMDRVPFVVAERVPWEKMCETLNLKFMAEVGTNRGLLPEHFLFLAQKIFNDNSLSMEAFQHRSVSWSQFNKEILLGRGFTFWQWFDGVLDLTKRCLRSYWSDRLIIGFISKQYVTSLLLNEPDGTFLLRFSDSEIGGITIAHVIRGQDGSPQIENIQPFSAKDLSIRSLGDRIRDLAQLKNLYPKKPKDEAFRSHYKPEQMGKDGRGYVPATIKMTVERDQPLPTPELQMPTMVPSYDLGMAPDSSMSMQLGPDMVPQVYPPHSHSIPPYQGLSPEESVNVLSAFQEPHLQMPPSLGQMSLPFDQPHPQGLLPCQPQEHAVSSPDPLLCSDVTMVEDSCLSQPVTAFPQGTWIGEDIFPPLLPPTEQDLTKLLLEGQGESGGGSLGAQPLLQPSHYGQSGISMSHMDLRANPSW

In one test the target is STAT6 (Homo sapiens (Human), UniProt P42226). Kind of test: STAT6 degrader assay (HiBiT, HeLa LgBiT clone 4.14). In kind it is cell-based. Conditions: HeLa LgBiT clone 4.14, 4-24 h. The protocol:
This was a HiBit based assay. A HeLa cell line stably transfected with a small protein, LgBit (Large Bit) was obtained from Promega. These cells express endogenous STAT6. A small 11 amino acid gene sequence (HiBiT) was inserted in the STAT6 gene using CRISPR technology. Once STAT6 protein is expressed in the cells, the HiBiT sequence will bind the LgBit in the cells resulting in a functional NanoBiT protein, giving a luminescent tag to STAT6, see FIG. 2.
Single cell clones were prepared and the clone 4.14 was selected for the assay based on that clone showing high luminescence, high STAT6 phosphorylation upon stimulation with IL-4, and inhibition of luminescence when cells were treated with STAT6 siRNA.
HeLa LgBiT clone 4.14 cells were suspended in DMEM with 10% FCS, 1% Pen/Strep, Na-pyrovate and Hygromycin B, at a concentration of 1.25*105 cells pr mL. 5000 cells were added pr well of a 384 well plate and 20 nL of compound was added by Echo® liquid handler. NN6394A (terfenadine, a toxic compound) was added to control wells at 50 μM concentration to establish the assay window. In these wells the cells are dead which equals 100% degradation of STAT6.
After 4-24 h of incubation at 37° C. under 5% CO2/95% air, 5 μL substrate (Nano-GLO®) was added to the wells and the plates were centrifuged and incubated for 0.5 h.
The luminescence in the wells as a measure of non-degraded STAT6 was measured in a plate reader (BMG Pherastar FSX). The measured DC50 (in nM) was determined.
The dose-response curves Examples 3p1, 3e50, 3e17, and 3e51 are shown below (where percent degradation is plotted vs. test compound concentration in M on a log-scale).
As to “3-(4-((4-((1-(4-(1-((4-(1H-indazol-5-yl)-1-methyl-1H-pyrrolo[2,3-b]pyridin-2-yl)methyl)-piperidin-4-yl)benzoyl)piperidin-4-yl)methyl)piperidin-1-yl)methyl)-3-(2-methoxyethyl)-2-oxo-2,3-dihydro-1H-benzo[d]imidazol-1-yl)piperidine-2,6-dione [Example 3i2]”, the “STAT6 degradation Emax (%)” value is 40-50%.

Still in this test, the particulars now being: HeLa LgBiT clone 4.14, 4-24 h; geometric mean; given for compounds with >80% Emax; read-out: STAT6 degradation DC50.
As to `Cn1c(CN2CCC(c3ccc(C(=O)N4CCC(CC5CCN(Cc6ccc7c(c6)n(C)c(=O)n7C6CCC(=O)NC6=O)CC5)CC4)cc3)CC2)cc2c(-c3ccc4[nH]ncc4c3)ccnc21` (stereo not drawn) [Example 3h1, 3-(5-((4-((1-(4-(1-((4-(1H-indazol-5-yl)-1-methyl-1H-pyrrolo[2,3-b]pyridin-2-yl)methyl)-piperidin-4-yl)benzoyl)piperidin-4-yl)methyl)piperidin-1-yl)methyl)-3-methyl-2-oxo-2,3-dihydro-1H-benzo[d]imidazol-1-yl)piperidine-2,6-dione], the DC50 came out at 2.4 nM. With `COCc1nc2cc(-c3ccnc4c3cc(CN3CCC(c5ccc(C(=O)N(C)c6ccc(C7CCN(Cc8ccc9c(c8)oc(=O)n9C8CCC(=O)NC8=O)CC7)cc6)cc5)CC3)n4C)ccc2[nH]1` (stereo not drawn) [Example 3n4, N-(4-(1-((3-(2,6-dioxopiperidin-3-yl)-2-oxo-2,3-dihydrobenzo[d]oxazol-6-yl)methyl)piperidin-4-yl)phenyl)-4-(1-((4-(2-(methoxymethyl)-1H-benzo[d]imidazol-5-yl)-1-methyl-1H-pyrrolo[2,3-b]pyridin-2-yl)methyl)piperidin-4-yl)-N-methylbenzamide], the DC50 is 0.1 nM. As for `COCCn1c(=O)n(C2CCC(=O)NC2=O)c2ccc(CN3CCN(CC4CCN(C(=O)c5ccc(C6CCN(Cc7cc8c(-c9ccc(N)nc9)ccnc8n7C)CC6)cc5)CC4)CC3)cc21` (stereo not drawn) [Example 3e7, 3-(5-((4-((1-(4-(1-((4-(6-aminopyridin-3-yl)-1-methyl-1H-pyrrolo[2,3-b]pyridin-2-yl)methyl)piperidin-4-yl)benzoyl)piperidin-4-yl)methyl)piperazin-1-yl)methyl)-3-(2-methoxyethyl)-2-oxo-2,3-dihydro-1H-benzo[d]imidazol-1-yl)piperidine-2,6-dione], the 50% degradation concentration (DC50) turned out to be 9 nM. As for `Cc1cc(C(=O)N2CCC(CN3CCN(Cc4ccc5c(c4)n(C4CC4)c(=O)n5[C@@H]4CCC(=O)NC4=O)C[C@@H]3C)CC2)cc(F)c1C1=CCN([C@@H](C)c2cc3c(-c4ccc(N)nc4)ccnc3n2C)CC1` (single isomer, unassigned) [Example 3h17], the DC50 was 0.8 nM.

In the case of `C[C@H]1CN(Cc2ccc3c(c2)n(C)c(=O)n3C2CCC(=O)NC2=O)CCN1CC1CCN(C(=O)c2ccc(N3CCN(Cc4cc5c(-c6ccc(N)nc6)ccnc5n4C)CC3)cc2)CC1` (stereo partly drawn) [Example 3h14, 3-(5-(((S)-4-((1-(4-(4-((4-(6-aminopyridin-3-yl)-1-methyl-1H-pyrrolo[2,3-b]pyridin-2-yl)methyl)piperazin-1-yl)benzoyl)piperidin-4-yl)methyl)-3-methylpiperazin-1-yl)methyl)-3-methyl-2-oxo-2,3-dihydro-1H-benzo[d]imidazol-1-yl)piperidine-2,6-dione], the DC50 is 1.1 nM. In the case of `CNc1ccc(-c2ccnc3c2cc([C@H](C)N2CCC(c4ccc(C(=O)N5CCC(CN6CCN(Cc7ccc8c(c7)n(C)c(=O)n8[C@H]7CCC(=O)NC7=O)C[C@@H]6C)CC5)cc4)CC2)n3C)cn1` [Example 3h4, (S)-3-(3-methyl-5-(((S)-3-methyl-4-((1-(4-(1-((S)-1-(1-methyl-4-(6-(methylamino)pyridin-3-yl)-1H-pyrrolo[2,3-b]pyridin-2-yl)ethyl)piperidin-4-yl)benzoyl)piperidin-4-yl)methyl)piperazin-1-yl)methyl)-2-oxo-2,3-dihydro-1H-benzo[d]imidazol-1-yl)piperidine-2,6-dione], the 50% degradation concentration (DC50) was 1 nM. On to `COCc1nc2cc(-c3ccnc4c3cc([C@H](C)N3CCC(c5ccc(C(=O)N6CCC(CN7CCN(Cc8ccc9c(c8)n(C)c(=O)n9C8CCC(=O)NC8=O)CC7)CC6)cc5)CC3)n4C)ccc2[nH]1` (stereo partly drawn) [Example 3e66, 3-(5-((4-((1-(4-(1-((S)-1-(4-(2-(methoxymethyl)-1H-benzo[d]imidazol-5-yl)-1-methyl-1H-pyrrolo[2,3-b]pyridin-2-yl)ethyl)piperidin-4-yl)benzoyl)piperidin-4-yl)methyl)piperazin-1-yl)methyl)-3-methyl-2-oxo-2,3-dihydro-1H-benzo[d]imidazol-1-yl)piperidine-2,6-dione], for which the half-maximal degradation concentration (DC50) was 0.5 nM. Take `CNc1ccc(-c2ccnc3c2cc([C@H](C)N2CCC(c4ccc(C(=O)N5CCC(CN6CCN(Cc7ccc8c(c7)n(C)c(=O)n8C7CCC(=O)NC7=O)C[C@@H]6C)CC5)cc4)CC2)n3C)cn1` (stereo partly drawn) [Example 3h2, 3-(3-methyl-5-(((S)-3-methyl-4-((1-(4-(1-((S)-1-(1-methyl-4-(6-(methylamino)pyridin-3-yl)-1H-pyrrolo[2,3-b]pyridin-2-yl)ethyl)piperidin-4-yl)benzoyl)piperidin-4-yl)methyl)piperazin-1-yl)methyl)-2-oxo-2,3-dihydro-1H-benzo[d]imidazol-1-yl)piperidine-2,6-dione]: the DC50 came out at 0.8 nM. `CNc1ccc(-c2ccnc3c2cc([C@H](C)N2CCC(c4ccc(C(=O)N5CCC(CN6CCN(Cc7ccc8c(c7)n(C)c(=O)n8[C@@H]7CCC(=O)NC7=O)C[C@@H]6C)CC5)cc4)CC2)n3C)cn1` (single isomer, unassigned) [Example 3h3]: the half-maximal degradation concentration (DC50) was determined as 1.1 nM.

The test is the same for the next values; noted with them: HeLa LgBiT clone 4.14, 4-24 h; read-out: STAT6 degradation Emax (%).
As to `Cn1c(CN2CCC(c3ccc(C(=O)N4CCC(Cn5cc(-c6ccc7c(c6)n(C)c(=O)n7C6CCC(=O)NC6=O)cn5)CC4)cc3)CC2)cc2c(-c3ccc4[nH]ncc4c3)ccnc21` (stereo not drawn) [Example 3l3, 3-(5-(1-((1-(4-(1-((4-(1H-indazol-5-yl)-1-methyl-1H-pyrrolo[2,3-b]pyridin-2-yl)methyl)piperidin-4-yl)benzoyl)piperidin-4-yl)methyl)-1H-pyrazol-4-yl)-3-methyl-2-oxo-2,3-dihydro-1H-benzo[d]imidazol-1-yl)piperidine-2,6-dione], the maximal effect (Emax) was in the range of 30 to 40%. For `CNc1ccc(-c2ccnc3c2cc([C@H](C)N2CC=C(c4c(C)cc(C(=O)N5CCC(CN6CCN(c7ccc8c(c7)C7(CC7)C(=O)N8C7CCC(=O)NC7=O)C[C@@H]6C)CC5)cc4F)CC2)n3C)cn1` (stereo partly drawn) [Example 3h19, 3-(5′-((S)-4-((1-(3-fluoro-5-methyl-4-(1-((S)-1-(1-methyl-4-(6-(methylamino)pyridin-3-yl)-1H-pyrrolo[2,3-b]pyridin-2-yl)ethyl)-1,2,3,6-tetrahydropyridin-4-yl)benzoyl)piperidin-4-yl)methyl)-3-methylpiperazin-1-yl)-2′-oxospiro[cyclopropane-1,3′-indolin]-1′-yl)piperidine-2,6-dione], the Emax lay within 40 to 50%. `Cn1c(CN2CCC(c3ccc(C(=O)N4CCC(N5CCN(Cc6cccc7c6n(C)c(=O)n7C6CCC(=O)NC6=O)CC5)CC4)cc3)CC2)cc2c(-c3ccc4[nH]ncc4c3)ccnc21` (stereo not drawn) [Example 3j2, 3-(4-((4-(1-(4-(1-((4-(1H-indazol-5-yl)-1-methyl-1H-pyrrolo[2,3-b]pyridin-2-yl)methyl)piperidin-4-yl)benzoyl)piperidin-4-yl)piperazin-1-yl)methyl)-3-methyl-2-oxo-2,3-dihydro-1H-benzo[d]imidazol-1-yl)piperidine-2,6-dione]: the Emax was less than 20%. The same measure, in the same setting: as for `COCc1nc2cc(-c3ccnc4c3cc(CN3CCC(c5ccc(C(=O)N6CCC(CN7CCN(Cc8ccc9c(c8)n(C8CCC(=O)NC8=O)c(=O)n9C)CC7)CC6)cc5)CC3)n4C)ccc2[nH]1` (stereo not drawn) [Example 3o1, 3-(6-((4-((1-(4-(1-((4-(2-(methoxymethyl)-1H-benzo[d]imidazol-5-yl)-1-methyl-1H-pyrrolo[2,3-b]pyridin-2-yl)methyl)piperidin-4-yl)benzoyl)piperidin-4-yl)methyl)piperazin-1-yl)methyl)-3-methyl-2-oxo-2,3-dihydro-1H-benzo[d]imidazol-1-yl)piperidine-2,6-dione], the figure is less than 20%; as for `Cn1c(CN2CCC(c3ccc(C(=O)N4CCC(CN5CCC(c6cccc7c6n(C)c(=O)n7C6CCC(=O)NC6=O)CC5)CC4)cc3)CC2)cc2c(-c3ccc4[nH]ncc4c3)ccnc21` (stereo not drawn) [Example 3t1, 3-(4-(1-((1-(4-(1-((4-(1H-indazol-5-yl)-1-methyl-1H-pyrrolo[2,3-b]pyridin-2-yl)methyl)piperidin-4-yl)benzoyl)piperidin-4-yl)methyl)piperidin-4-yl)-3-methyl-2-oxo-2,3-dihydro-1H-benzo[d]imidazol-1-yl)piperidine-2,6-dione], less than 20%.
